According to paper PMC7347206, “Characterization of a long-term mouse primary liver 3D tissue model recapitulating innate-immune responses and drug-induced liver toxicity” (PLoS ONE, 2020):
pIC50: −log10 of the molar value. Read-outs that look alike come from different tables or passages of the source.

How the values were obtained:
[1] = tested on: mouse primary hepatocyte 3D liver spheroids; assay: cells; conditions: for pIC50: Mus musculus, Hepatocyte; for MOS [3D in vitro IC50 / Human Cmax] 48 h / MOS [3D in vitro IC50 / Human Cmax] 8 days: C57BL/6, mouse
Description: To avoid increased evaporation, a humidified lid (Labcyte, USA), filled with PBS, was placed on each plate. […] From day 4 on, 50% of the medium was replaced daily with serum-free maintenance medium (WME with Cell Maintenance Supplement Pack (Thermo Fisher Scientific, USA)).
Compounds were obtained from Sigma-Aldrich if not otherwise stated. […] Toxicity treatment started on day 7 with re-dosing every second day. On the first day of exposure, 50 μl of the cell culture media was removed and 50 μl of fresh cell culture media containing the compound solution was added to the well to achieve the desired concentration. For redosing, 50 μl of cell culture media was replaced with fresh compound-containing cell culture media. […] The dose-response curves were plotted, and IC50 values were calculated using Graph-Pad Prism.
Drug-induced liver injury (DILI) is a major concern in drug development, which often cannot be predicted in vitro due to inherent limitations of 2D hepatocyte cultures, including short-term viability and decreased functionality. […] The spheroids either experienced a single treatment and were analyzed after 48 hours (Fig 3A–3G, 48 h), or they were repeatedly treated every 2 days and analyzed at day 8 (Fig 3A–3G, 8 days). In both cases, ATP content was used as a viability marker.

[2] = read-out: Mouse Cmax; reported mouse in vivo maximal plasma concentration; 41 (one per compound, as in cell); cited from earlier work
[3] = read-out: Human Cmax; reported human in vivo Cmax; 48 (one per compound, as in cell); cited from earlier work
[4] = tested on: bile-salt-export pump (BSEP); assay: Drug-induced cholestasis: BSEP gene expression (qRT-PCR) in coculture spheroids; conditions: 24 h
[5] = tested on: liver coculture spheroids; assay: Cytotoxicity by LDH release or ATP content in the cholestasis study; conditions: all treatment conditions (1.25, 2.5, 10 μM), 24 h
[6] = tested on: IL-6; assay: Crosstalk of parenchymal and non-parenchymal cells: IL-6 mRNA in coculture spheroids; format: cell-based, mouse
Description: (§1) Cytochrome P450 (Cyp450), as well as IL-6 and TNFα gene expression was measured by qRT-PCR.
(§2) Drug-induced liver injuries can be caused by several modes of action, including perturbations of biochemical pathways caused by the interaction of parenchymal and non-parenchymal cells. These complex and dynamic cellular interactions can only be represented in vivo or in coculture models, which include the parenchymal and non-parenchymal cells.

[7] = tested on: TNFα; assay: Crosstalk of parenchymal and non-parenchymal cells: TNFα mRNA in coculture spheroids; format: cell-based, mouse; conditions: addition of 50 μM Dexamethasone to LPS; as compared to IL-6
Description: as §1, §2

[8] = tested on: Cyp3a; assay: Cyp3a inhibition, P450-Glo activity assay in non-induced spheroids; conditions: 10 μM Ketoconazole
[9] = tested on: Cyp3a11; assay: Cyp450 induction on mRNA level (qRT-PCR) in liver spheroids; format: in vitro ADME, mouse; conditions: PCN 50 μM, Pb 100 μM
Description: (§3) To analyze the metabolic capacity, spheroids were incubated with different Cyp inducers for 72 hours, starting 7 days or 14 days post seeding and analyzed by qRT-PCR. […] PCN and βNF were dissolved in DMSO as a 1000x stock solution, Pb was dissolved directly in the cell culture media.
(§4) For the biotransformation of endogenous compounds and xenobiotics including drugs, liver cytochromes P450 (Cyp450) play a critical role as they convert substances into more polar products to facilitate the elimination from the body. The major drug-metabolizing Cyp450 in mouse include Cyp1a1, Cyp1a2, Cyp2b10, and Cyp3a11 [34]. To assess their metabolic capacity, spheroids were incubated with well-known Cyp450 inducers for […] and analyzed for Cyp450 induction on RNA level on day 10 and day 17 (Figs 2C and S4). […] Additionally, spheroids were incubated with Phenobarbital (Pb), a known Cyp2b10 and Cyp3a11 inducer.

[10] = tested on: Cyp2b10; assay: as above; format: in vitro ADME, mouse; conditions: 100 μM Pb
Description: as §3, §4

[11] = tested on: Cyp3a11; parameters: method as in PMID 22466549; conditions: mouse in vivo; cited from earlier work
[12] = tested on: Cyp1a1; assay: Cyp450 induction on mRNA level (qRT-PCR) in liver spheroids; format: in vitro ADME, mouse; conditions: 15 μM βNF
Description: as §3, §4

[13] = tested on: Cyp1a2; assay: as above; format: in vitro ADME, mouse; conditions: 15 μM βNF
Description: as §3, §4

[14] = tested on: IL-6 release of Kupffer cells and liver sinusoidal endothelial cells; assay: LPS-induced IL-6 release (ELISA) from liver spheroids; format: cell-based, mouse; conditions: LPS for 72 hours, 14 days after production
Description: (§5) The activation potential of Kupffer cells and liver sinusoidal endothelial cells was measured by assessing the lipopolysaccharide (LPS)-induced interleukin 6 (IL-6) release. […] was added, and the supernatant was collected after […]. IL-6 concentrations were measured by ELISA (BioLegend, USA). For stellate-cell activation, spheroids were treated with different concentrations of transforming growth factor beta TGFβ (Bio-Techne AG, Switzerland) for 72 hours. Induction of smooth-muscle-α-actin (Acta2) gene expression was measured via quantitative real-time polymerase chain reaction (qRT-PCR), described in the section “gene expression analysis”. For the induction of the major histocompatibility complex class II (MHCII) on LSECs, spheroids were treated with 100 ng ml^-1 tumor-necrosis factor alpha (TNFα; Sigma-Aldrich, Switzerland) for 48 h. H2-Ab1 gene expression was measured via qRT-PCR.
(§6) NPCs are activated upon detection of endotoxins, such as lipopolysaccharides (LPS), which leads to the secretion of certain cytokines by NPCs. To assess the functionality and activation potential of NPCs, monoculture and coculture spheroids were treated with LPS for 72 hours and analyzed for interleukin 6 (IL-6) release (Fig 4C). […] Stellate cells are quiescent in a normal liver but can be activated upon liver damage and are responsible for scar-tissue formation. […]

[15] = tested on: Cyp3a11; assay: Crosstalk of parenchymal and non-parenchymal cells: Cyp3a11 mRNA in coculture spheroids ± LPS; conditions: LPS alone, 10 μg/ml, 48 h
Description: as §1, §2

[16] = tested on: Acta2 (alpha smooth muscle actin); assay: Stellate-cell activation: Acta2 gene expression (qRT-PCR) in coculture spheroids; format: cell-based, mouse; conditions: 72 h
Description: as §5
NPCs are activated upon detection of endotoxins, such as lipopolysaccharides (LPS), which leads to the secretion of certain cytokines by NPCs. To assess the functionality and activation potential of NPCs, monoculture and coculture spheroids were treated with LPS for 72 hours and analyzed for interleukin 6 (IL-6) release (Fig 4C). […] Stellate cells are quiescent in a normal liver but can be activated upon liver damage and are responsible for scar-tissue formation. Stimulation with transforming growth factor beta (TGFβ), triggered a dose-dependent induction of Acta2 (alpha smooth muscle actin, αSMA), which is an activation marker for stellate cells (Fig 4D). Low concentrations of TGFβ increased Acta2 induction by 3.5 fold, whereas higher concentrations induced gene expression by 4.7-fold and 8-fold, respectively. The functional characterization of liver sinusoidal endothelial cells was performed by induction of the major histocompatibility complex II (MHC-II), which is constitutively expressed in LSECs but can be further increased by exposure to pro-inflammatory cytokines, such as tumor necrosis factor alpha (TNFα).

[17] = tested on: H2-Ab1 (MHC-II); assay: MHC-II induction on LSECs: H2-Ab1 gene expression (qRT-PCR) in coculture spheroids; format: cell-based, mouse; conditions: 100 ng ml^-1 TNFα, 48 h
Description: as §5, §6

[18] = read-out: 3D in vitro IC50 8 days
[19] = read-out: 3D in vitro IC50 48 h

In the case of CC(=O)Nc1ccc(O)cc1 [Acetaminophen], the pIC50 [1, 18] is given as 2.56, the Cmax [2] is given as 2220 µM and the Cmax [3] is given as 136 µM.

In the case of O=C1CC2(CCCC2)CC(=O)N1CCCCN1CCN(c2ncccn2)CC1 [Buspirone], the “MOS [3D in vitro IC50 / Human Cmax] 48 h” value [1] was 49189, the “MOS [3D in vitro IC50 / Human Cmax] 8 days” value [1] was 20489 and the pIC50 [1, 19] was 3.35. The pIC50 [1, 18] was 3.73, the “hepatotoxicity class by IC50/Cmax (MOS)” value ([1]; mouse) was “non-DILI compounds” and the Cmax [3] was 0.009 µM.

With CN(C)CCCN1c2ccccc2Sc2ccc(Cl)cc21 [CPZ, Chlorpromazine] the “inhibition of BSEP expression” value ([4]; high concentrations of CPZ) was 96%, the “inhibition of BSEP expression” value ([4]; low concentrations of CPZ) was “up to 87%” and the “cytotoxicity by LDH or ATP” value [5] was “no cytotoxicity”.

In the case of O=P1(N(CCCl)CCCl)NCCCO1 (stereo not shown) [Cyclophosphamide], the pIC50 [1, 19] was 3.71, the pIC50 [1, 18] was 4.88 and the “hepatotoxicity class by IC50/Cmax (MOS)” value ([1]; after 48 hours (short-term exposure), cut-off 100) was “hepatotoxic agents”. The Cmax [2] was 77 µM and the Cmax [3] was 96 µM.

In the case of C[C@@H]1C[C@H]2[C@@H]3CCC4=CC(=O)C=C[C@]4(C)[C@@]3(F)[C@@H](O)C[C@]2(C)[C@@]1(O)C(=O)CO [Dexamethasone], the “reduction of LPS-induced IL-6 mRNA induction” value ([6]; co-administration of 50 μM Dexamethasone with LPS) was ~ 50% and the “effect on LPS-induced TNFα gene expression” value [7] was “only moderate reduction”.

In the case of O=C(O)Cc1ccccc1Nc1c(Cl)cccc1Cl [Diclofenac], the pIC50 [1, 19] is given as 3.53, the pIC50 [1, 18] is given as 4.53 and the Cmax [2] is given as 10 µM. The Cmax [3] was 9.43 µM.

In the case of CC(=O)N1CCN(c2ccc(OCC3COC(Cn4ccnc4)(c4ccc(Cl)cc4Cl)O3)cc2)CC1 (stereo not shown) [Ketoconazole], the “downregulation of Cyp3a activity” value [8] was 60%.

In the case of CN(Cc1cnc2nc(N)nc(N)c2n1)c1ccc(C(=O)N[C@@H](CCC(=O)O)C(=O)O)cc1 [Methotrexate], the “reduction in cell viability after a single dosage” value [1] was “only a slight reduction in cell viability”, the “MOS [3D in vitro IC50 / Human Cmax] 48 h” value [1] was 84’231 and the “MOS [3D in vitro IC50 / Human Cmax] 8 days” value [1] was 44.64. The pIC50 [1, 18] was 3.68, the “hepatotoxicity class by IC50/Cmax (MOS)” value ([1]; mouse) was “assigned to the correct class” and the Cmax [2] was 43 µM.

With CCC1(c2ccccc2)C(=O)NC(=O)NC1=O [Phenobarbital] the “Cyp3a11 mRNA induction compared to the vehicle control” value ([9]; day 10 (treated day 7-10)) was 6.2 fold, the “Cyp3a11 mRNA induction compared to the vehicle control” value ([9]; day 17 (treated day 14-17)) was 3.9 fold and the “Cyp2b10 mRNA induction” value ([10]; day 10) was 1.9 fold. The “Cyp2b10 mRNA induction” value ([10]; day 17) was 2.4 fold.

In the case of CC(=O)[C@H]1[C@H](C#N)C[C@H]2[C@@H]3CC=C4C[C@@H](O)CC[C@]4(C)[C@H]3CC[C@@]21C [Pregnenolone 16α-carbonitrile], the “reduced expression of Cyp3a11 mRNA when administered together with LPS” value [11] is listed as 25%, the “Cyp3a11 mRNA induction compared to the vehicle control” value ([9]; day 10 (treated day 7-10)) is listed as 20 fold and the “Cyp3a11 mRNA induction compared to the vehicle control” value ([9]; day 17 (treated day 14-17)) is listed as 59 fold.

In the case of CC(C)NCC(O)COc1cccc2ccccc12 (stereo not shown) [Propranolol], the Cmax [3] is listed as 0.2 µM.

For CN(C)[C@@H]1C(O)=C(C(N)=O)C(=O)[C@@]2(O)C(O)=C3C(=O)c4c(O)cccc4[C@@](C)(O)[C@H]3C[C@@H]12 [Tetracycline], the pIC50 [1, 19] is given as 3.36, the pIC50 [1, 18] is given as 4.40 and the Cmax [2] is given as 11 µM. For the same molecule, the Cmax [3] was 21 µM.

With Cc1c(C)c2c(c(C)c1O)CCC(C)(COc1ccc(CC3SC(=O)NC3=O)cc1)O2 (stereo not shown) [Troglitazone] the “inhibition of BSEP expression” value ([4]; 1.25 μM) was 10%, the “inhibition of BSEP expression” value ([4]; 2.5 μM) was 40% and the “inhibition of BSEP expression” value ([4]; 10 μM) was 89%. The “cytotoxicity by LDH or ATP” value [5] was “no cytotoxicity”.

In the case of O=c1cc(-c2ccccc2)oc2ccc3ccccc3c12 [β-naphthoflavone], the “Cyp1a1 mRNA induction” value ([12]; day 10) was 90 fold, the “Cyp1a1 mRNA induction” value ([12]; day 17) was 103 fold and the “Cyp1a2 mRNA induction” value ([13]; day 10) was 157 fold. For the same molecule, the “Cyp1a2 mRNA induction” value ([13]; day 17) was 59 fold.

In the case of lipopolysaccharide [LPS], the “IL-6 mRNA expression increase” value ([6]; LPS alone, 10 μg/ml, 48 h, coculture spheroids) was 6 fold, the IL-6 release ([14]; coculture spheroids) was 65 ± 11 pg/mL and the IL-6 release ([14]; monoculture spheroids) was 2 pg/mL. For the same molecule, the “Cyp3a11 mRNA induction” value [15] was “did not lead to Cyp3a11 mRNA induction”.

With transforming growth factor beta [TGFβ] the Acta2 induction ([16]; higher concentration of TGFβ (first of two)) was 4.7 fold, the Acta2 induction ([16]; higher concentration of TGFβ (second of two)) was 8 fold and the Acta2 induction ([16]; low concentrations of TGFβ) was 3.5 fold.

For tumor-necrosis factor alpha [TNFα], the “increase of mRNA expression of MHC-II (H2-Ab1)” value [17] was 2.3 fold.
